Converted amounts (≈) assume the structure as drawn. Structures can show the parent of a compound that is named as a salt.
Experiments:
[1] = test system: Bacillus subtilis (EC1524); assay: microbe, parasite or virus in culture; format: cell-based; conditions: for MIC: MH broth, 35° C., 20-24 hours; for IC50: OD600 dose-response curve; for MBC: additional 20 hours on MH agar
[2] = test system: Bacillus cereus (ATCC11778); assay: microbe, parasite or virus in culture; format: cell-based; conditions: for MIC: MH broth, 35° C., 20-24 hours; for IC50: OD600 dose-response curve; for MBC: additional 20 hours on MH agar
[3] = test system: Pseudomonas aeruginosa (ATCC27853); assay: Kirby-Bauer disc diffusion susceptibility test; format: cell-based; conditions: 6 mm disc, 5 μg
Procedure: (§1) Bioactivity was assessed using the Kirby-Bauer disc diffusion susceptibility test. Oxoid Blank Discs were impregnated with the desired test substance. A 0.5 McFarland standard inoculum was prepared by adding 3-5 single colonies to 10 mL MH broth in a 15 mL falcon tube and standardised to 0.5 McFarland standard. The inoculum was used within 10 minutes. A sterile cotton swab was dipped in the inoculum, gently pressed against the side of the tube to remove excess liquid, and generously streaked on MH agar plate to fully cover the plate. The impregnated disc was carefully placed on the agar. The plate was incubated at 35° C. for 20 hrs overnight. A digital calliper was used to measure the zone diameter. The recorded zone diameter is an average of three zone diameters measured of one zone.
(§2) Each 6 mm disc was impregnated with 5 μg of the relevant compound (TM, A, B, C, D, or any of E1 to E7), and the diffusion zone recorded after 20 hours.
Underlying scaffolds A, B, C and D and lipid-varied analogues E1 to E7 were assayed for potency against Pseudomonas aeruginosa (ATCC27853), according to the methods of Example 2. Results of the Kirby-Bauer disc diffusion susceptibility test conducted using Pseudomonas aeruginosa (ATCC27853) as a test organism are shown in FIG. 2 and in Table 3. MIC, MBC and IC50 values were also obtained as in Example 2.

[4] = test system: Pseudomonas aeruginosa (ATCC27853); assay: microbe, parasite or virus in culture; format: cell-based
HEK293 kidney cells = assay: Cell proliferation assay / cell morphology (cytotoxicity); format: cell-based, human; conditions: for Minimum lethal dose: HEK293; for viable cells: human
Procedure: (§3) Underlying scaffolds A, B, C and D and lipid-varied analogues E1 to E7 were assayed for cytotoxicity towards human liver cells (Hep2G) and human kidney cells (HEK293).
(§4) Mammalian cells were cultured in DMEM medium supplemented with 10% heat inactivated fetal bovine serum (FBS, v/v). The cultures were maintained in a humidified incubator at 37° C. in 5% CO2/95% air. FBS was reduced to 2% for the cell proliferation assay.
(§5) In sterile 96-well plate, each well was seeded with 1×10^5 cells. The cells were then grown confluent overnight in 100 μL DMEM with 10% FBS. The medium was replenished with DMEM with 2% FBS and added vehicle control or test substance the next day. For test substance in methanol, stock was added to 25 μL of DMEM with 2% FBS or PBS and placed in a laminar flow hood to let the methanol evaporate (about 1-3 hrs). Once the methanol has evaporated, DMEM with 2% FBS was added to final volume of 100 μL of desired test concentration. […] Cells were grown for additional 24 hrs. The cell viability was determined by using a Promega CellTiter 96 AQueous One Solution Cell Proliferation Assay System following the manufacturer's protocol.

HepG2 liver cells = assay: as above; format: cell-based, human; conditions: for Minimum lethal dose: HepG2; for viable cells: human
Procedure: as §3, §4, §5

[5] = test system: Bacillus cereus (ATCC11778); assay: Kirby-Bauer disc diffusion susceptibility test; format: cell-based; conditions: 5 μg per disc
Procedure: as §1, §2
(§6) Results are shown for E2 to E7 and TM. Values quoted are zone diameters, with larger numbers indicating higher antibacterial activity.

[6] = test system: Bacillus subtilis (EC1524); assay: Kirby-Bauer disc diffusion susceptibility test; format: cell-based; conditions: for Antibacterial activity in disc diffusion test: 5 μg per disc
Procedure: as §1, §2, §6

With CCCCCCCCCCCC(=O)NC1C(OC2OC(C[C@@H](O)[C@H]3O[C@@H](n4ccc(=O)[nH]c4=O)[C@H](O)[C@@H]3O)C(O)C(O)[C@H]2NC(=O)CCCCCCCCCCC)OC(CO)[C@@H](O)C1O (some centres unmarked) [Compound E7, Di-N-dodecanoyl-tunicamycin] the MIC [1] was 100 µg/mL (≈ 107 µM), the IC50 [1] was 58.9 µg/mL (≈ 63.2 µM) and the MBC [1] was over 200 µg/mL. For the same molecule, the MIC [2] was 50 µg/mL (≈ 53.7 µM), the IC50 [2] was 1.4 µg/mL (≈ 1.51 µM) and the MBC [2] was over 200 µg/mL. For the same molecule, the Diffusion distance [3] was 8 mm, the IC50 [4] was 81.9 µg/mL (≈ 88 µM) and the MBC [4] was over 400 µg/mL. It also gave an MIC [4] of 200 µg/mL (≈ 215 µM), a Minimum lethal dose (HEK293 kidney cells) of over 400 µg/mL and a viable cells (HEK293 kidney cells) of over 75%. The Minimum lethal dose (HepG2 liver cells) was over 400 µg/mL and the viable cells (HepG2 liver cells) was over 75%.

In the case of NC1C(O)[C@H](O)C(CO)O[C@@H]1OC1O[C@H](C[C@@H](O)[C@@H]2O[C@@H](n3ccc(=O)[nH]c3=O)[C@H](O)[C@@H]2O)C(O)C(O)[C@H]1N (stereo partly drawn) [D, α-D-glucosamine-(1″-11′)-tunicamyl Uracil Dihydrochloride], the “Antibacterial activity in disc diffusion test” value (from here on “Antibacterial activity”) [5] is reported as “completely inactive” and the “Antibacterial activity” value [6] is reported as “completely inactive”.

In the case of CC(C)(C)OC(=O)NC1C(O)[C@H](O)C(CO)O[C@@H]1OC1O[C@H](C[C@@H](O)[C@@H]2O[C@@H](n3ccc(=O)[nH]c3=O)[C@H](O)[C@@H]2O)C(O)C(O)[C@H]1NC(=O)OC(C)(C)C (stereo partly drawn) [B, 10′,2″-Di-N-Boc-α-D-glucosamine-(1″-11′)-tunicamyl Uracil], the “Antibacterial activity” value [5] is reported as “completely inactive” and the “Antibacterial activity” value [6] is reported as “completely inactive”.

CC(=O)N[C@H]1C(O)O[C@H](C[C@@H](O)[C@@H]2O[C@@H](n3ccc(=O)[nH]c3=O)[C@H](O)[C@@H]2O)C(O)C1O (some centres unmarked) [A, N-acetyl-tunicamyl-uracil] was tested, and the “Antibacterial activity” value [5] was “completely inactive” and the “Antibacterial activity” value [6] was “completely inactive”.

Work on CCCCCCC(=O)NC1C(OC2OC(C[C@@H](O)[C@H]3O[C@@H](n4ccc(=O)[nH]c4=O)[C@H](O)[C@@H]3O)C(O)C(O)[C@H]2NC(=O)CCCCCC)OC(CO)[C@@H](O)C1O (some centres unmarked) [Compound E2, Di-N-heptanoyl tunicamycin] yielded a zone of inhibition at 5 µg/disc ([6]; 6 mm disc impregnated with 5 μg, 20 hours, 35° C., read-out: Diffusion distance (zone diameter)) of 10 mm, an MIC [1] of 6.25 µg/mL (≈ 7.9 µM) and an IC50 [1] of 3.39 µg/mL (≈ 4.29 µM). For the same molecule, the MBC [1] was over 50 µg/mL, the MIC [2] was 100 µg/mL (≈ 126 µM) and the IC50 [2] was 13.3 µg/mL (≈ 16.9 µM). It also gave an MBC [2] of over 200 µg/mL, a Diffusion distance [3] of 7 mm and an IC50 [4] of 62.4 µg/mL (≈ 79 µM). The MBC [4] was over 400 µg/mL, the MIC [4] was 100 µg/mL (≈ 126 µM) and the Minimum lethal dose (HEK293 kidney cells) was over 400 µg/mL. For the same molecule, the viable cells (HEK293 kidney cells) was over 75%, the Minimum lethal dose (HepG2 liver cells) was over 400 µg/mL and the viable cells (HepG2 liver cells) was over 75%.

— patent US10954262B2, “Tunicamycin analogues” (Oxford University Innovation Limited, priority 2017, dated 2021)
